In patent publication US7723358B2, “Aroyl-O-piperidine derivatives for the treatment of diabetes-related problems” (Merck Patent GmbH, priority 2004, dated 2010):

Biological target: T1, microsomal triglyceride transfer protein (MTP) (Mesocricetus auratus, UniProt P55158)
T1 construct: The supernatant comprising the soluble MTP is dialysed against Tris/HCl 150 mM; from tissue; host or cells: golden hamster liver microsomes, deoxycholate-solubilised supernatant, dialysed
T1 sequence (P55158 19-895): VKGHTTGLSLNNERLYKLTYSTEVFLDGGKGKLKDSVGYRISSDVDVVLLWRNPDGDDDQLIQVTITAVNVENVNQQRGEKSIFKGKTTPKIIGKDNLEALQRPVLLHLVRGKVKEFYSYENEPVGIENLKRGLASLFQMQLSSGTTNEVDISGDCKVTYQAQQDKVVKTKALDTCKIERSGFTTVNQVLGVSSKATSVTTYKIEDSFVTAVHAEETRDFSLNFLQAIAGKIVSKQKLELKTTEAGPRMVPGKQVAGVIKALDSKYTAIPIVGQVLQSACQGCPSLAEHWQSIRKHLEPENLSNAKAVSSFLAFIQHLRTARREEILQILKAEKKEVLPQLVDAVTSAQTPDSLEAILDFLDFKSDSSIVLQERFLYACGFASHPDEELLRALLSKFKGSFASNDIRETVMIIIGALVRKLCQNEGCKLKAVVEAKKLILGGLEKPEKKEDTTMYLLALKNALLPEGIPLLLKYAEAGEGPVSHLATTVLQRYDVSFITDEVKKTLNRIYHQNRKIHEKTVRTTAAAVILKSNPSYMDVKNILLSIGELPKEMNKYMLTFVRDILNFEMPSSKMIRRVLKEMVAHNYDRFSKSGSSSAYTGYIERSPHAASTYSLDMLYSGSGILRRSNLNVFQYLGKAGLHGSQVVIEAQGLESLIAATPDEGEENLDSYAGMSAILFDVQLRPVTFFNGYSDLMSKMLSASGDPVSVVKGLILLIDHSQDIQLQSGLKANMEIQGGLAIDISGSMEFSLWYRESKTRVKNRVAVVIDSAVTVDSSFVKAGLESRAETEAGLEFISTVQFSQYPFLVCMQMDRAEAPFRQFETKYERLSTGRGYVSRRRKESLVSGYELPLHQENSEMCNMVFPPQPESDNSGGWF
Experiment: Inhibition of MTP activity: transfer of [3H]-triolein from donor liposomes to biotinylated LDL, SPA
Type: biochemical
Conditions: MTP from golden hamster liver; incubation 18-24 hours at 37° C.; read-out: IC50, concentration that allows a 50% inhibition of MTP
Experimental: Analysis of the Inhibition of MTP Activity
The inhibition of the activity of microsomal triglyceride transfer protein (MTP) was tested by using the following operating protocol.
The inhibition of MTP activity with a compound can be quantified by observing the inhibition of the transfer of a labelled triglyceride, from a donor particle to an acceptor particle, in the presence of MTP. The procedure for the preparation of MTP is based on the method by Wetterau and Zilversmit (Biochem. Biophys. Acta (1986) 875, 610). A few grams of golden hamster liver are taken and then rinsed several times in a 250 mM sucrose solution at 0° C. All the following steps proceed at +4° C. A homogenate at a concentration of 50% in 250 mM sucrose is prepared using a Teflon mill and then centrifuged for 10 minutes at 10 000×g at +4° C. The supernatant is then centrifuged at 105 000×g for 75 minutes at +4° C. The supernatant is discarded and the microsomal pellet is taken up in 3 ml (per g of starting liver) of Tris/HCl 150 mM pH 8.0. 1-ml aliquot fractions are stored at −80° C. until the time of use.
After thawing a fraction of microsomes (1 ml), 12 ml of refrigerated Tris/HCl 50 mM, KCl 50 mM, MgCl2 5 mM pH 7.4 buffers and 1.2 ml of deoxycholate (0.54% in water) are added. After incubation for 30 minutes at +4° C. with gentle agitation, the suspension is centrifuged at 105 000×g for 75 minutes. The supernatant comprising the soluble MTP is dialysed against Tris/HCl 150 mM, NaCl 40 mM, EDTA 1 mM, 0.02% sodium azide pH 7.4 buffer (5 times one litre over 2-3 days). The MTP is stored at +4° C., is stable for at least 30 days and is used in unmodified form in the test.
The donor particles (liposomes) are prepared from 208 μl of L-phosphatidylcholine at a concentration of 10 mg/ml in chloroform, and 480 μl of [3H]-triolein at a concentration of 0.5 mCi/ml in toluene. After stirring, the solution is evaporated under nitrogen, taken up in 6 ml of Tris/HCl 50 mM, KCl 50 mM, MgCl2 5 mM pH 7.4 buffer and incubated in an ultrasound bath for 30 minutes at room temperature. The liposomes are stored at +4° C. and sonicated again for 10 minutes before each use.
The acceptor particles are biotinylated low density lipoproteins (LDL-biot). These particles are supplied by the company Amersham.
The reaction mixture is prepared in untreated ½ well white plates (Corning Costar) by addition, in the following order, of: 5 μl of HEPES 50 mM, NaCl 150 mM, BSA 0.1% (w/v), 0.05% sodium azide (w/v), pH 7.4 buffer; 5 μl of liposome; 5 μl of LDL-biot; 5 μl of test products in DMSO; 5 μl of MTP. After incubation for 18-24 hours at 37° C., the reaction is stopped by adding 100 μl of Amersham SPA (Scintillation Proximity Assay) beads coupled to streptavidin, and the radioactivity is counted using a Top Count (Packard) machine at least one hour later. The inhibition of the transfer of the triglycerides with a compound is reflected by a reduction in the transferred radioactivity.
The results are expressed in terms of the IC50, i.e. the concentration that allows a 50% inhibition of MTP.

| Compound | IC50 |
| --- | --- |
| Cc1cccc(C(=O)Nc2cccc(OC3CCN(C(=O)NC(C)(C)C)CC3)c2)c1-c1ccc(OC(F)(F)F)cc1 [Example 28, N-(1,1-dimethylethyl)-4-[3-[[[6-methyl-4′-(trifluoromethoxy)[1,1′-biphenyl]-2-yl]-carbonyl]amino]phenoxy]-1-piperidine-carboxamide] | 232 nM |
| Cc1cccc(C(=O)Nc2cccc(OC3CCN(C(=O)NC4CCCCC4)CC3)c2)c1-c1ccc(OC(F)(F)F)cc1 [Example 34, N-cyclohexyl-4-[3-[[[6-methyl-4′-(trifluoro-methoxy)[1,1′-biphenyl]-2-yl]carbonyl]-amino]phenoxy]-1-piperidinecarboxamide] | 296 nM |
| COc1ccc(CC(=O)N2CCC(Oc3cccc(NC(=O)c4ccccc4-c4ccc(OC(F)(F)F)cc4)c3)CC2)cc1OC [Example 110, N-[3-[[1-[2-(3,4-dimethoxyphenyl)acetyl]-4-piperidinyl]oxy]phenyl]-4′-(trifluoro-methoxy)[1,1′-biphenyl]-2-carboxamide] | 469 nM |
| Cc1cccc(C(=O)Nc2cccc(OC3CCN(C(=O)NC(C)C)CC3)c2)c1-c1ccc(OC(F)(F)F)cc1 [Example 30, N-(1-methylethyl)-4-[3-[[[6-methyl-4′-(trifluoromethoxy)[1,1′-biphenyl]-2-yl]-carbonyl]amino]phenoxy]-1-piperidine-carboxamide] | 369 nM |
| Cc1cccc(C(=O)Nc2cccc(OC3CCN(S(=O)(=O)c4cccnc4Cl)CC3)c2)c1-c1ccc(OC(F)(F)F)cc1 [Example 19, N-[3-[[1-[(2-chloro-3-pyridinyl)sulfonyl]-4-piperidinyl]oxy]phenyl]-6-methyl-4′-(trifluoromethoxy)[1,1′-biphenyl]-2-carboxamide] | 290 nM |
| Cc1cccc(C(=O)Nc2cccc(OC3CCN(CC4CCOC4)CC3)c2)c1-c1ccc(OC(F)(F)F)cc1 (stereo not shown) [Example 78, 6-methyl-N-[3-[[1-[(tetrahydro-3-furanyl)-methyl]-4-piperidinyl]oxy]phenyl]-4′-(tri-fluoromethoxy)[1,1′-biphenyl]-2-carbox-amide] | 447 nM |
| COc1cccc(NC(=O)N2CCC(Oc3cccc(NC(=O)c4cccc(C)c4-c4ccc(OC(F)(F)F)cc4)c3)CC2)c1 [Example 23, N-(3-methoxyphenyl)-4-[3-[[[6-methyl-4′-(trifluoromethoxy)[1,1′-biphenyl]-2-yl]-carbonyl]amino]phenoxy]-1-piperidine-carboxamide] | 261 nM |
| CC(=O)N1CCC(Oc2cccc(NC(=O)c3cccc(C)c3-c3ccc(OC(F)(F)F)cc3)c2)CC1 [Example 4, N-[3-[(1-acetyl-4-piperidinyl)oxy]phenyl]-6-methyl-4′-(trifluoromethoxy)[1,1′-biphenyl]-2-carboxamide] | 344 nM |
| COc1cc(NC(=O)N2CCC(Oc3cccc(NC(=O)c4cccc(C)c4-c4ccc(OC(F)(F)F)cc4)c3)CC2)cc(OC)c1OC [Example 38, 4-[3-[[[6-methyl-4′-(trifluoromethoxy)[1,1′-biphenyl]-2-yl]carbonyl]amino]phenoxy]-N-(3,4,5-trimethoxyphenyl)-1-piperidine-carboxamide] | 422 nM |
| CSc1ccc(NC(=O)N2CCC(Oc3cccc(NC(=O)c4cccc(C)c4-c4ccc(OC(F)(F)F)cc4)c3)CC2)cc1 [Example 39, N-[4-(methylthio)phenyl]-4-[3-[[[6-methyl-4′-(trifluoromethoxy)[1,1′-biphenyl]-2-yl]-carbonyl]amino]phenoxy]-1-piperidine-carboxamide] | 85.7 nM |
| CCOC(=O)CNC(=O)N1CCC(Oc2cccc(NC(=O)c3cccc(C)c3-c3ccc(OC(F)(F)F)cc3)c2)CC1 [Example 31, ethyl N-[[4-[3-[[[6-methyl-4′-(trifluorometh-oxy)[1,1′-biphenyl]-2-yl]carbonyl]amino]-phenoxy]-1-piperidinyl]carbonyl]glycinate] | 82.7 nM |

Continued, values first:

| IC50 | Compound |
| --- | --- |
| 202 nM | Cc1cccc(C(=O)Nc2cccc(OC3CCN(C(=O)c4ccc([N+](=O)[O-])cc4)CC3)c2)c1-c1ccc(OC(F)(F)F)cc1 [Example 114, 6-methyl-N-[3-[[1-(4-nitrobenzoyl)-4-piperidinyl]oxy]phenyl]-4′-(trifluorometh-oxy)[1,1′-biphenyl]-2-carboxamide] |
| 202 nM | O=C(Nc1cccc(OC2CCN(C(=O)c3cccnc3)CC2)c1)c1ccccc1-c1ccc(OC(F)(F)F)cc1 [Example 118, N-[3-[[1-(3-pyridinylcarbonyl)-4-piperidin-yl]oxy]phenyl]-4′-(trifluoromethoxy)[1,1′-biphenyl]-2-carboxamide] |
| 296 nM | COC(=O)CCC(=O)N1CCC(Oc2cccc(NC(=O)c3ccccc3-c3ccc(OC(F)(F)F)cc3)c2)CC1 [Example 133, methyl γ-oxo-4-[3-[[[4′-(trifluoromethoxy)-[1,1′-biphenyl]-2-yl]carbonyl]amino]-phenoxy]-1-piperidinebutanoate] |
| 49.4 nM | Cc1ccc(C(=O)N2CCC(Oc3cccc(NC(=O)c4cccc(C)c4-c4ccc(OC(F)(F)F)cc4)c3)CC2)cc1 [Example 116, 6-methyl-N-[3-[[1-(4-methylbenzoyl)-4-piperidinyl]oxy]phenyl]-4′-(trifluorometh-oxy)[1,1′-biphenyl]-2-carboxamide] |
| 433 nM | O=C(Nc1cccc(OC2CCN(C(=O)c3ccno3)CC2)c1)c1ccccc1-c1ccc(OC(F)(F)F)cc1 [Example 115, N-[3-[[1-(5-isoxazolylcarbonyl)-4-piperi-dinyl]oxy]phenyl]-4′-(trifluoromethoxy)-[1,1′-biphenyl]-2-carboxamide] |
| 136 nM | Cc1cccc(C(=O)Nc2cccc(OC3CCN(C(=O)CC(C)C)CC3)c2)c1-c1ccc(OC(F)(F)F)cc1 [Example 129, 6-methyl-N-[3-[[1-(3-methyl-1-oxobutyl)-4-piperidinyl]oxy]phenyl]-4′-(trifluorometh-oxy)[1,1′-biphenyl]-2-carboxamide] |
| 241 nM | O=C(Nc1cccc(OC2CCN(C(=O)c3ccc([N+](=O)[O-])cc3)CC2)c1)c1ccccc1-c1ccc(OC(F)(F)F)cc1 [Example 112, N-[3-[[1-(4-nitrobenzoyl)-4-piperidinyl]-oxy]phenyl]-4′-(trifluaromethoxy)[1,1′-biphenyl]-2-carboxamide] |
| 309 nM | CCOC(=O)CCC(=O)N1CCC(Oc2cccc(NC(=O)c3ccccc3-c3ccc(OC(F)(F)F)cc3)c2)CC1 [Example 139, ethyl γ-oxo-4-[3-[[[4′-(trifluoromethoxy)-[1,1′-biphenyl]-2-yl]carbonyl]amino]-phenoxy]-1-piperidinebutanoate] |
